# Experimental data reported in US11998013B1, “1-(morpholin-4-yl)-3-(naphthalen-2-yloxy)propan-2-ol as an eco-friendly insecticidal agent against spodoptera littoralis (boisd.)” (priority 2023, dated 2024).
# System: Spodoptera littoralis
# Assay: Insecticidal bioassay screening (castor leaf dip, larval mortality)
# Assay type: in vivo
# Conditions: for Toxic ratio: 72 h, fenoxycarb's LC50 / compound's LC50 × 100
# Protocol: Five concentrations (200, 100, 50, 25, 12.5 ppm) were designed for this synthetic compound and the reference fenoxycarb compound as the dynamic ingredients based on ppm via diluting the commercial formulation.
# In this experiment, castor leaves are immersed in each of the previously prepared concentrations of the components for 10 seconds and then left to dry for 60 minutes. Larvae of the second and fourth instars of each checked strain are prepared with treated leaves in gauze-covered glass containers for 72 hrs. An untreated control is made in which leaves are dipped in triton x-100 and distilled water only. Then the preserved leaves were removed & fresh, untreated leaves were provided for 72 hours. Three replicates (10 larvae each) were checked for each concentration. Daily inspection was carried out for all treatments and mortality percentages were recorded 3 days (72 hours) after treatment. The average mortality percentage was corrected employing Abbott's formula. The corrected mortality rate for each of the previously synthesized compounds is statistically calculated according to Finney (1970). Through this rate, the corresponding concentration test lines (LDP lines) are assessed. Fifty and ninety percent mortality are determined, and the regression values for the checked products were previously evaluated.
SMILES,"LC50 (2nd instar larvae of S. littoralis, after 72 h of treatment, treated castor leaves)",Toxic ratio (2nd instar larvae),"LC50 (4th instar larvae of S. littoralis, after 72 h of treatment, treated castor leaves)",Toxic ratio (4th instar larvae),"LC50 (Spodoptera littoralis, foliar)",activity against Spodoptera littoralis (in words) (compared with the reference insecticide fenoxycarb)
"CCOC(=O)NCCOc1ccc(Oc2ccccc2)cc1 [Fenoxycarb, reference compound]",2.73 ppm,100,43.231 ppm,1,2.73 µg/mL,
"OC(COc1ccc2ccccc2c1)CN1CCOCC1 (stereo not drawn) [Compound 2, 1-(morpholin-4-yl)-3-(naphthalen-2-yloxy)propan-2-ol]",,15.5,,62.4,17.6 µg/mL,active against Spodoptera littoralis
